The structures appear in SMILES notation.

The assay has as its target T1, glucocorticoid receptor (Homo sapiens, UniProt P04150).
T1 construct: endogenous in cells
T1 sequence (P04150 1-777): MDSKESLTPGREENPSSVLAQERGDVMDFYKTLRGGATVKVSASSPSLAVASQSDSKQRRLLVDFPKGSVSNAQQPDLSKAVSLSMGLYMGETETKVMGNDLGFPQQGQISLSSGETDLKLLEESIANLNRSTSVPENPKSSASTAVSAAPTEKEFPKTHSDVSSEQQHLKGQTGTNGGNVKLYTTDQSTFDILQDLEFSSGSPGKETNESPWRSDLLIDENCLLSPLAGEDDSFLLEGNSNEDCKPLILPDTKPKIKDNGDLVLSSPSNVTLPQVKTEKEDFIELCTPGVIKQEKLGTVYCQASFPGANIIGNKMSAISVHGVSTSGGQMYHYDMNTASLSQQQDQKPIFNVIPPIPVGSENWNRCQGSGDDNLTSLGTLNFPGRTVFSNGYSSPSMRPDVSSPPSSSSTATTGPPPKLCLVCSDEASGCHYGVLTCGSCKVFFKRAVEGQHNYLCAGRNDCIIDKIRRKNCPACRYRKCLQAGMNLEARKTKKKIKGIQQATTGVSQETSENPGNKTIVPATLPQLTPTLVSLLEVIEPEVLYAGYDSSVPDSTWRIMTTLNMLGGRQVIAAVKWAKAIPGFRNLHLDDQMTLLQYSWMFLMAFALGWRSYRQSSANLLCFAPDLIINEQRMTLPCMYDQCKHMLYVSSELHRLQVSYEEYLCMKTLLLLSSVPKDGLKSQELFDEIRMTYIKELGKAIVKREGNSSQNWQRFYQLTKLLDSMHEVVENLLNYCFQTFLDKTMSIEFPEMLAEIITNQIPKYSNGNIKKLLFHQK
Nature of the assay: Ligand binding assay (GR BIND). The essentials:
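Displacement of tritiated dexamethasone (6 nM trace solution) from receptor in cell supernatant was measured after overnight incubation at 4 °C in molybdate-containing TEGM, pH 7.2, 2% ethanol. Hydroxylapatite pulled down the receptor–ligand complex for filter washing and scintillation counting, with dexamethasone as reference.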
As a reminder, the Ki is a dissociation constant, usually derived from enzyme kinetics or from competition with a known ligand. In the case of `C[C@]12Cc3cnn(-c4ccc(F)cc4)c3C=C1CC[C@@H]2CN(CCc1ccccn1)S(=O)(=O)Cc1cccnc1` [Example 1, N-{[(4αR,5S)-1-(4-Fluorophenyl)-4α-methyl-1,4,4α,5,6,7-hexahydrocyclopenta[f]indazol-5-yl]methyl}-1-pyridin-3-yl-N-(2-pyridin-2-ylethyl)methanesulfonamide], the affinity, expressed as Ki, was 1.8 nM.

As to `C[C@]12Cc3cnn(-c4ccc(F)cc4)c3C=C1CC[C@@H]2CN(CC1CC1)S(=O)(=O)c1ccccc1F` [Example 2, N-(cyclopropylmethyl)-2-fluoro-N-{[(4αR,5S)-1-(4-fluorophenyl)-4α-methyl-1,4,4α,5,6,7-hexahydrocyclopenta[f]indazol-5-yl]methyl}benzenesulfonamide], the affinity, expressed as Ki, was 0.6 nM.

For the compound `C=CCN(C[C@H]1CCC2=Cc3c(cnn3-c3ccc(F)cc3)C[C@@]21C)S(=O)(=O)c1ccccc1F` [Example 3, N-allyl-2-fluoro-N-{[(4αR,5S)-1-(4-fluorophenyl)-4α-methyl-1,4,4α,5,6,7-hexahydrocyclopenta[f]indazol-5-yl]methyl}benzenesulfonamide], the affinity corresponds to a Ki of 0.8 nM.

`C[C@]12Cc3cnn(-c4ccc(F)cc4)c3C=C1CC[C@@H]2CN(CC1CC1)S(=O)(=O)c1ccccc1C(F)(F)F` [Example 4, N-(cyclopropylmethyl)-N-{[(4αR,5S)-1-(4-fluorophenyl)-4α-methyl-1,4,4α,5,6,7-hexahydrocyclopenta[f]indazol-5-yl]methyl}-2-(trifluoromethyl)benzenesulfonamide] yielded a Ki of 2.2 nM.

Take `C[C@]12Cc3cnn(-c4ccc(F)cc4)c3C=C1CC[C@@H]2CN(CCO)S(=O)(=O)Cc1cccc(C(F)(F)F)c1` [Example 63, N-{[(4αR,5S)-1-(4-fluorophenyl)-4α-methyl-1,4,4α,5,6,7-hexahydrocyclopenta[f]indazol-5-yl]methyl}-N-(2-hydroxyethyl)-1-[3-(trifluoromethyl)phenyl]methanesulfonamide]: the affinity corresponds to a Ki of 9.1 nM.

Turning to `Cc1ccc(S(=O)(=O)N(CCO)C[C@H]2CCC3=Cc4c(cnn4-c4ccc(F)cc4)C[C@@]32C)s1` [Example 64, N-{[(4αR,5S)-1-(4-fluorophenyl)-4α-methyl-1,4,4α,5,6,7-hexahydrocyclopenta[f]indazol-5-yl]methyl}-N-(2-hydroxyethyl)-5-methylthiophene-2-sulfonamide], the affinity, expressed as Ki, was 3 nM.

`Cn1cc(S(=O)(=O)N(CCO)C[C@H]2CCC3=Cc4c(cnn4-c4ccc(F)cc4)C[C@@]32C)c(C(F)(F)F)n1` [Example 65, N-{[(4αR,5S)-1-(4-fluorophenyl)-4α-methyl-1,4,4α,5,6,7-hexahydrocyclopenta[f]indazol-5-yl]methyl}-N-(2-hydroxyethyl)-1-methyl-3-(trifluoromethyl)-1H-pyrazole-4-sulfonamide] showed a Ki of 2.7 nM.

For `Cc1cc(S(=O)(=O)N(CCO)C[C@H]2CCC3=Cc4c(cnn4-c4ccc(F)cc4)C[C@@]32C)c(C)o1` [Example 66, N-{[(4αR,5S)-1-(4-fluorophenyl)-4α-methyl-1,4,4α,5,6,7-hexahydrocyclopenta[f]indazol-5-yl]methyl}-N-(2-hydroxyethyl)-2,5-dimethylfuran-3-sulfonamide], the Ki was found to be 7.9 nM.

For `Cn1nc(C(F)(F)F)cc1-c1ccc(S(=O)(=O)N(CCO)C[C@H]2CCC3=Cc4c(cnn4-c4ccc(F)cc4)C[C@@]32C)s1` [Example 67, N-{[(4αR,5S)-1-(4-fluorophenyl)-4α-methyl-1,4,4α,5,6,7-hexahydrocyclopenta[f]indazol-5-yl]methyl}-N-(2-hydroxyethyl)-5-[1-methyl-3-(trifluoromethyl)-1H-pyrazole-5-yl]thiophene-2-sulfonamide], the affinity, expressed as Ki, was 13.4 nM.

Turning to `C[C@]12Cc3cnn(-c4ccc(F)cc4)c3C=C1CC[C@@H]2CN(CCO)S(=O)(=O)c1cccc(C#N)c1` [Example 68, 3-cyano-N-{[(4αR,5S)-1-(4-fluorophenyl)-4α-methyl-1,4,4α,5,6,7-hexahydrocyclopenta[f]indazol-5-yl]methyl}-N-(2-hydroxyethyl)benezenesulfonamide], the Ki was 3.6 nM. Compared with the last compound, the Ki is about 3.7-fold lower.

In turn, `C[C@]12Cc3cnn(-c4ccc(F)cc4)c3C=C1CC[C@@H]2CN(CCO)S(=O)(=O)c1ccc(Oc2cccc(Cl)c2C#N)cc1` [Example 69, 4-(3-chloro-2-cyanophenoxy)-N-{[(4αR,5S)-1-(4-fluorophenyl)-4α-methyl-1,4,4α,5,6,7-hexahydrocyclopenta[f]indazol-5-yl]methyl}-N-(2-hydroxyethyl)benzenesulfonamide] came in with a Ki of 8.7 nM. Against the preceding compound, the Ki is about 2.4-fold higher.

Regarding `C[C@]12Cc3cnn(-c4ccc(F)cc4)c3C=C1CC[C@@H]2CN(CCO)S(=O)(=O)c1ccccc1C(F)(F)F` [Example 70, N-{[(4αR,5S)-1-(4-fluorophenyl)-4α-methyl-1,4,4α,5,6,7-hexahydrocyclopenta[f]indazol-5-yl]methyl}-N-(2-hydroxyethyl)-2-(trifluoromethyl)benzenesulfonamide], the affinity corresponds to a Ki of 4.5 nM.

Compound `Cc1noc(C)c1S(=O)(=O)N(CCO)C[C@H]1CCC2=Cc3c(cnn3-c3ccc(F)cc3)C[C@@]21C` [Example 71, N-{[(4αR,5S)-1-(4-fluorophenyl)-4α-methyl-1,4,4α,5,6,7-hexahydrocyclopenta[f]indazol-5-yl]methyl}-N-(2-hydroxyethyl)-3,5-dimethylisoxazole-4-sulfonamide] had a Ki of 5 nM. The Ki values of the last two compounds are within 1.5-fold of each other.

As to `C[C@]12Cc3cnn(-c4ccc(F)cc4)c3C=C1CC[C@@H]2CN(CCO)S(=O)(=O)c1cc(F)cc(F)c1` [Example 72], the affinity corresponds to a Ki of 1.4 nM.

As to `COC(=O)c1ccccc1S(=O)(=O)N(CCO)C[C@H]1CCC2=Cc3c(cnn3-c3ccc(F)cc3)C[C@@]21C` [Example 73, methyl 2-{[{[(4αR,5S)-1-(4-fluorophenyl)-4α-methyl-1,4,4α,5,6,7-hexahydrocyclopenta[f]indazol-5-yl]methyl}(2-hydroxyethyl)amino]sulfonyl}benzoate], affinity was put at a Ki of 3.1 nM.

In turn, `C[C@]12Cc3cnn(-c4ccc(F)cc4)c3C=C1CC[C@@H]2CN(CCO)S(=O)(=O)c1ccc(Oc2ccccn2)cc1` [Example 74, N-{[(4αR,5S)-1-(4-fluorophenyl)-4α-methyl-1,4,4α,5,6,7-hexahydrocyclopenta[f]indazol-5-yl]methyl}-N-(2-hydroxyethyl)-4-(pyridin-2-yloxy)benzenesulfonamide] registered a Ki of 3 nM.

In turn, `C[C@]12Cc3cnn(-c4ccc(F)cc4)c3C=C1CC[C@@H]2CN(CCO)S(=O)(=O)Cc1ccccc1` [Example 75, N-{[(4αR,5S)-1-(4-fluorophenyl)-4α-methyl-1,4,4α,5,6,7-hexahydrocyclopenta[f]indazol-5-yl]methyl}-N-(2-hydroxyethyl)-1-phenylmethanesulfonamide] registered a Ki of 2.5 nM.

For `CNC(=O)Nc1ccc(S(=O)(=O)N(CCO)C[C@H]2CCC3=Cc4c(cnn4-c4ccc(F)cc4)C[C@@]32C)c(Cl)c1` [Example 76, 2-chloro-N-{[(4αR,5S)-1-(4-fluorophenyl)-4α-methyl-1,4,4α,5,6,7-hexahydrocyclopenta[f]indazol-5-yl]methyl}-N-(2-hydroxyethyl)-4-{[(methylamino)carbonyl]amino}-benzenesulfonamide], the affinity corresponds to a Ki of 7.7 nM.

With `Cc1ccccc1S(=O)(=O)N(CCO)C[C@H]1CCC2=Cc3c(cnn3-c3ccc(F)cc3)C[C@@]21C` [Example 77, N-{[(4αR,5S)-1-(4-fluorophenyl)-4α-methyl-1,4,4α,5,6,7-hexahydrocyclopenta[f]indazol-5-yl]methyl}-N-(2-hydroxyethyl)-2-methylbenzenesulfonamide], the affinity, expressed as Ki, was 1.8 nM.

For `C[C@]12Cc3cnn(-c4ccc(F)cc4)c3C=C1CC[C@@H]2CN(CCO)S(=O)(=O)c1ccccc1C#N` [Example 78, 2-cyano-N-{[(4αR,5S)-1-(4-fluorophenyl)-4α-methyl-1,4,4α,5,6,7-hexahydrocyclopenta[f]indazol-5-yl]methyl}-N-(2-hydroxyethyl)benzenesulfonamide], the Ki was 2.3 nM. The Ki values of the last two compounds are within 1.5-fold of each other.

For `C[C@]12Cc3cnn(-c4ccc(F)cc4)c3C=C1CC[C@@H]2CN(CCO)S(=O)(=O)c1ccc(Oc2ccccc2)cc1` [Example 79, N-{[(4αR,5S)-1-(4-fluorophenyl)-4α-methyl-1,4,4α,5,6,7-hexahydrocyclopenta[f]indazol-5-yl]methyl}-N-(2-hydroxyethyl)-4-phenoxybenzenesulfonamide], the Ki came out at 4.8 nM.

Take `C[C@]12Cc3cnn(-c4ccc(F)cc4)c3C=C1CC[C@@H]2CN(CCO)S(=O)(=O)c1cc(C(F)(F)F)ccc1Cl` [Example 80, 2-chloro-N-{[(4αR,5S)-1-(4-fluorophenyl)-4α-methyl-1,4,4α,5,6,7-hexahydrocyclopenta[f]indazol-5-yl]methyl}-N-(2-hydroxyethyl)-5-(trifluoromethyl)benzenesulfonamide]: the Ki was determined as 13.7 nM. This Ki lies about 2.9-fold higher than the previous one.

These data come from patent US8299048B2, “Hexahydrocyclopentyl[f]indazole sulfonamides and derivatives thereof as selective glucocorticoid receptor modulators” (Merck Sharp & Dohme Corp., priority 2008, dated 2012).
